Experimental data from PubChem BioAssay (NCI).
Where “and” joins values, the source holds several entries; their conditions need not be identical. Equal values may be shown once.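 Results reflect a 48-hour exposure of cells in 96-well plates to compound at five concentrations. GI50 marks 50% less growth. Definition used: TGI = concentration required for complete inhibition of growth.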

How the values were obtained:
Experiment in all cases: DTP human tumour cell line panel, 48 h
[1] = tested on: 786-0 renal
[2] = tested on: A549 NSCLC
[3] = tested on: ACHN renal
[4] = tested on: CAKI-1 renal
[5] = tested on: CCRF-CEM leukemia
[6] = tested on: COLO 205 colon
[7] = tested on: DLD-1 colon
[8] = tested on: DMS 273 small cell lung
[9] = tested on: EKVX NSCLC
[10] = tested on: HCC-2998 colon
[11] = tested on: HCT-116 colon
[12] = tested on: HCT-15 colon
[13] = tested on: HL-60(TB) leukemia
[14] = tested on: HOP-18 NSCLC
[15] = tested on: HOP-62 NSCLC
[16] = tested on: HOP-92 NSCLC
[17] = tested on: HT29 colon
[18] = tested on: IGROV1 ovarian
[19] = tested on: K-562 leukemia
[20] = tested on: KM12 colon
[21] = tested on: KM20L2 colon
[22] = tested on: LOX IMVI melanoma
[23] = tested on: LXFL 529 NSCLC
[24] = tested on: M14 melanoma
[25] = tested on: M19-MEL melanoma
[26] = tested on: MALME-3M melanoma
[27] = tested on: MOLT-4 leukemia
[28] = tested on: NCI-H226 lung
[29] = tested on: NCI-H23 lung
[30] = tested on: NCI-H460 lung
[31] = tested on: NCI-H522 lung
[32] = tested on: OVCAR-3 ovarian
[33] = tested on: OVCAR-4 ovarian
[34] = tested on: OVCAR-5 ovarian
[35] = tested on: OVCAR-8 ovarian
[36] = tested on: RPMI-8226 leukemia
[37] = tested on: RXF 393 renal
[38] = tested on: SF-268 CNS
[39] = tested on: SF-295 CNS
[40] = tested on: SF-539 CNS
[41] = tested on: SK-MEL-2 melanoma
[42] = tested on: SK-MEL-28 melanoma
[43] = tested on: SK-MEL-5 melanoma
[44] = tested on: SK-OV-3 ovarian
[45] = tested on: SN12C renal
[46] = tested on: SNB-19 CNS
[47] = tested on: SNB-75 CNS
[48] = tested on: SNB-78 CNS
[49] = tested on: SR leukemia
[50] = tested on: SW-620 colon
[51] = tested on: TK-10 renal
[52] = tested on: U251 CNS
[53] = tested on: UACC-257 melanoma
[54] = tested on: UACC-62 melanoma
[55] = tested on: UO-31 renal
[56] = tested on: A498 renal
[57] = tested on: BT-549 breast
[58] = tested on: DU-145 prostate
[59] = tested on: HS 578T breast
[60] = tested on: MCF7 breast
[61] = tested on: MDA-MB-231 breast
[62] = tested on: MDA-MB-435
[63] = tested on: MDA-N
[64] = tested on: NCI/ADR-RES ovarian
[65] = tested on: PC-3 prostate
[66] = tested on: T-47D breast
[67] = tested on: DMS 114 small cell lung

With `O=C(c1ccccc1)c1nnc(C(=O)c2ccccc2)nn1` the TGI [1] was > 344 µM, the TGI [2] was > 344 µM and the TGI [3] was > 344 µM. The TGI [4] was > 344 µM, the TGI [5] was > 344 µM and the TGI [6] was > 344 µM. For the same compound, the TGI [7] was > 344 µM, the TGI [8] was > 344 µM and the TGI [9] was > 344 µM. For the same compound, the TGI [10] was > 344 µM, the TGI [11] was > 344 µM and the TGI [12] was > 344 µM. For the same compound, the TGI [13] was > 344 µM, the TGI [14] was > 344 µM and the TGI [15] was > 344 µM. For the same compound, the TGI [16] was > 344 µM, the TGI [17] was > 344 µM and the TGI [18] was > 344 µM. For the same compound, the TGI [19] was > 344 µM, the TGI [20] was > 344 µM and the TGI [21] was > 344 µM. The TGI [22] was > 344 µM, the TGI [23] was > 344 µM and the TGI [24] was > 344 µM. For the same compound, the TGI [25] was > 344 µM, the TGI [26] was > 344 µM and the TGI [27] was > 344 µM. For the same compound, the TGI [28] was > 344 µM, the TGI [29] was > 344 µM and the TGI [30] was > 344 µM. The TGI [31] was > 344 µM, the TGI [32] was > 344 µM and the TGI [33] was > 344 µM. The TGI [34] was > 344 µM, the TGI [35] was > 344 µM and the TGI [36] was > 344 µM. The TGI [37] was 261 µM, the TGI [38] was > 344 µM and the TGI [39] was > 344 µM. The TGI [40] was > 344 µM, the TGI [41] was > 344 µM and the TGI [42] was > 344 µM. The TGI [43] was > 344 µM, the TGI [44] was > 344 µM and the TGI [45] was > 344 µM. The TGI [46] was > 344 µM, the TGI [47] was > 344 µM and the TGI [48] was > 344 µM. For the same compound, the TGI [49] was 128 µM, the TGI [50] was > 344 µM and the TGI [51] was > 344 µM. For the same compound, the TGI [52] was > 344 µM, the TGI [53] was > 344 µM and the TGI [54] was > 344 µM. The TGI [55] was > 344 µM.

`Cc1nn(-c2cc(Cl)ccc2[N+](=O)[O-])c(C)c1Cl` was tested, and the TGI [1] was > 100 µM, the TGI [56] was > 100 µM and the TGI [2] was > 100 µM. The TGI [3] was > 100 µM, the TGI [57] was > 100 µM and the TGI [4] was > 100 µM. For the same compound, the TGI [5] was > 100 µM, the TGI [6] was > 100 µM and the TGI [58] was > 100 µM. For the same compound, the TGI [9] was > 100 µM, the TGI [10] was > 100 µM and the TGI [11] was > 100 µM. The TGI [12] was > 100 µM, the TGI [13] was > 100 µM and the TGI [15] was > 100 µM. For the same compound, the TGI [59] was > 100 µM, the TGI [17] was > 100 µM and the TGI [18] was > 100 µM. The TGI [19] was > 100 µM, the TGI [20] was > 100 µM and the TGI [22] was > 100 µM. The TGI [24] was > 100 µM, the TGI [26] was > 100 µM and the TGI [60] was > 100 µM. For the same compound, the TGI [61] was > 100 µM, the TGI [62] was > 100 µM and the TGI [63] was > 100 µM. The TGI [27] was > 100 µM, the TGI [28] was > 100 µM and the TGI [29] was > 100 µM. The TGI [30] was > 100 µM, the TGI [31] was > 100 µM and the TGI [64] was > 100 µM. The TGI [32] was > 100 µM, the TGI [33] was > 100 µM and the TGI [34] was > 100 µM. For the same compound, the TGI [35] was > 100 µM, the TGI [65] was > 100 µM and the TGI [36] was > 100 µM. The TGI [37] was 76 µM, the TGI [38] was > 100 µM and the TGI [39] was > 100 µM. The TGI [40] was > 100 µM, the TGI [41] was > 100 µM and the TGI [42] was > 100 µM. For the same compound, the TGI [43] was > 100 µM, the TGI [44] was > 100 µM and the TGI [45] was > 100 µM. The TGI [46] was > 100 µM, the TGI [47] was > 100 µM and the TGI [49] was > 100 µM. For the same compound, the TGI [50] was > 100 µM, the TGI [66] was > 100 µM and the TGI [51] was > 100 µM. The TGI [52] was > 100 µM, the TGI [53] was > 100 µM and the TGI [54] was > 100 µM. The TGI [55] was > 100 µM.

Work on `CCc1ccc(/C=C\c2cc(OC)c(OC)c(OC)c2)cc1` yielded a GI50 [1] of 0.0353 µM, a TGI [1] of 14 µM and a GI50 [56] of 0.0233 µM. The TGI [56] was 0.433 µM and 0.389 µM, the TGI [2] was 53.1 µM and the GI50 [3] was 0.0784 µM. For the same compound, the TGI [3] was 31.8 µM, the GI50 [4] was 1.02 µM and the TGI [4] was > 100 µM. For the same compound, the GI50 [5] was 0.0274 µM, the GI50 [6] was 0.0212 µM and the TGI [6] was 0.134 µM and 0.0499 µM. For the same compound, the GI50 [7] was 0.0358 µM, the TGI [7] was 27.8 µM and the GI50 [67] was 0.0156 µM. The TGI [67] was 0.228 µM and 0.057 µM, the TGI [8] was 0.994 µM and the GI50 [9] was 0.0521 µM. For the same compound, the TGI [9] was > 100 µM, the GI50 [10] was 0.0577 µM and the TGI [10] was 0.342 µM and 0.438 µM. The GI50 [11] was 0.0187 µM, the TGI [11] was 0.464 µM and 1.18 µM and the GI50 [12] was 0.0327 µM. For the same compound, the GI50 [13] was 0.0172 µM, the GI50 [15] was 0.0295 µM and the TGI [15] was 18.3 µM. The GI50 [16] was 0.0222 µM, the TGI [16] was 0.233 µM and the TGI [59] was 0.106 µM. For the same compound, the TGI [17] was 0.527 µM and 0.121 µM, the GI50 [21] was 0.0164 µM and the TGI [21] was 0.125 µM and 0.032 µM. It also gave a TGI [22] of 0.581 µM, a GI50 [23] of 0.0233 µM and a TGI [23] of 27.3 µM. For the same compound, the GI50 [24] was 0.0168 µM, the TGI [24] was 19.9 µM and the GI50 [25] was 0.0392 µM. For the same compound, the TGI [25] was > 100 µM, the GI50 [26] was 0.0447 µM and the TGI [26] was 37.4 µM. The TGI [61] was 0.25 µM, the TGI [62] was 0.0066 µM and the TGI [63] was 0.00395 µM. The TGI [28] was 0.0792 µM, the GI50 [29] was 0.039 µM and the TGI [29] was 0.338 µM and 0.114 µM. For the same compound, the GI50 [30] was 0.0329 µM, the TGI [31] was 0.0503 µM and 0.0384 µM and the TGI [32] was 0.206 µM. The TGI [33] was > 100 µM, the GI50 [34] was 16.7 µM and the TGI [34] was > 100 µM. It also gave a TGI [35] of 0.581 µM, a GI50 [36] of 0.0373 µM and a TGI [37] of 0.0783 µM. It also gave a GI50 [38] of 0.06 µM, a TGI [38] of 46.9 µM and a TGI [39] of 0.0171 µM. The GI50 [40] was 0.0163 µM, the TGI [40] was 0.0443 µM and 0.0546 µM and the GI50 [41] was 0.0258 µM. The TGI [41] was 0.66 µM and 0.203 µM, the GI50 [42] was 0.0395 µM and the TGI [42] was > 100 µM. The TGI [43] was 0.464 µM, the GI50 [45] was 0.0539 µM and the GI50 [46] was 0.0176 µM. The GI50 [47] was 0.0261 µM, the TGI [47] was > 100 µM and the GI50 [48] was 0.0224 µM. The TGI [48] was > 100 µM, the TGI [49] was 0.336 µM and the GI50 [53] was 0.0802 µM. For the same compound, the TGI [53] was 72.1 µM, the GI50 [55] was 0.0512 µM and the TGI [55] was 81.3 µM.
